Measured values from ChEMBL document CHEMBL3822445, “Histone demethylating agents as potential S-adenosyl-l-methionine-competitors” (Medchemcomm, 2016).
pIC50: −log10 of the molar value. Activity calls are given as the source filed them. No cut-off for these calls is given here.

Experiments:
[1] = tested on: MCF7; experiment: Induction of apoptosis in human MCF7 cells assessed as necrotic cells at 15 uM after 72 hrs by AnnexinV-FITC staining based flow cytometry (reference value: 7.6 +/- 1 %); type: functional
[2] = tested on: MCF7; experiment: Inhibition of DNA methylation in human MCF7 cells assessed as reduction in H3K27me3 levels at 15 uM after 48 hrs by Western blot analysis; type: cell-based
[3] = tested on: MCF7; experiment: Induction of apoptosis in human MCF7 cells assessed as viable cells at 15 uM after 72 hrs by AnnexinV-FITC staining based flow cytometry (reference value: 60.5 +/- 6 %); type: functional; settings: MCF7, 72 h, read-out: Activity
[4] = target: T1, Histone-lysine N-methyltransferase EHMT2 (Homo sapiens) (UniProt Q96KQ7); experiment: Inhibition of G9a in human MCF7 nuclear extracts assessed as reduction in H3K27 levels at 15 uM after 48 hrs; type: cell-based
T1 sequence (whole entry): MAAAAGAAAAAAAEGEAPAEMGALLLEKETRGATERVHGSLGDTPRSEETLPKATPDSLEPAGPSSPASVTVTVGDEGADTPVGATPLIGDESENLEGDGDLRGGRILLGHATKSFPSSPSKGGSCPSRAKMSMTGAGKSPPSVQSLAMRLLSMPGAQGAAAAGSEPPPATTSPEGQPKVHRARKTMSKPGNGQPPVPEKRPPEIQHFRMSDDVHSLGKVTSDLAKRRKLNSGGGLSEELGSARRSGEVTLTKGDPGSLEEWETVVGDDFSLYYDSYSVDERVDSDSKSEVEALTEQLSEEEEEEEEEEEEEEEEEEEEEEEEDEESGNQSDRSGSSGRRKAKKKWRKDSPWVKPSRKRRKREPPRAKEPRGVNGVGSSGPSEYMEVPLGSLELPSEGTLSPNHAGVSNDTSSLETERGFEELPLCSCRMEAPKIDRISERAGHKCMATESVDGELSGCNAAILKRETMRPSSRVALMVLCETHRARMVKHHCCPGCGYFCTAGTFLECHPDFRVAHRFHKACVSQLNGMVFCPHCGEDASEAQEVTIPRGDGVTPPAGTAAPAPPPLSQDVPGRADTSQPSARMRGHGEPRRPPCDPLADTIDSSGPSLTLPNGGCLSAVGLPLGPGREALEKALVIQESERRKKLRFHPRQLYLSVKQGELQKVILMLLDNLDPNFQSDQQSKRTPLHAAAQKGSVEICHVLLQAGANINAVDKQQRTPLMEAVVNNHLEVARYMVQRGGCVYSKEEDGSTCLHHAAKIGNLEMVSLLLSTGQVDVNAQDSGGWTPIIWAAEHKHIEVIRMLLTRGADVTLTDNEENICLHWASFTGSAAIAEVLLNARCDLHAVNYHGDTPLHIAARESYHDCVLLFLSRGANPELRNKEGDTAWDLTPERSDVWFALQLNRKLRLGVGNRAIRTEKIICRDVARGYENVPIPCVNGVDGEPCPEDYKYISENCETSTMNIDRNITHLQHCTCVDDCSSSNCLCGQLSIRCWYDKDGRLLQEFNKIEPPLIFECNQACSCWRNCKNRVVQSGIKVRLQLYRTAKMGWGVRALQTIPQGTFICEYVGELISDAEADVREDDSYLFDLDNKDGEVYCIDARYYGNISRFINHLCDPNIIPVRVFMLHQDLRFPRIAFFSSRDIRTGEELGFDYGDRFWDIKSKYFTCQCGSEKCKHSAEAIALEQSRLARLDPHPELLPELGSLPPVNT

[5] = tested on: MCF7; experiment: Induction of apoptosis in human MCF7 cells assessed as viable cells at 15 uM after 48 hrs by AnnexinV-FITC staining based flow cytometry (reference value: 74.4 +/- 9.1 %); type: functional; settings: MCF7, 48 h, read-out: Activity
[6] = tested on: MCF7; experiment: Induction of apoptosis in human MCF7 cells assessed as late apoptotic cells at 15 uM after 72 hrs by AnnexinV-FITC staining based flow cytometry (reference value: 11.8 +/- 2.2 %); type: functional
[7] = tested on: MCF7; experiment: Cell cycle arrest in human MCF7 cells assessed as accumulation at G2/M phase at 15 uM after 72 hrs by flow cytometry relative to control; type: functional
[8] = Antiproliferative activity against human Ovarian cancer LA#83 cells assessed as cell survival at 20 uM after 72 hrs by MTT assay relative to control; type: functional; settings: read-out: Survival
[9] = tested on: MCF7; experiment: Induction of apoptosis in human MCF7 cells assessed as early apoptotic cells at 15 uM after 48 hrs by AnnexinV-FITC staining based flow cytometry (reference value: 7.8 +/- 5.3 %); type: functional
[10] = tested on: MCF7; experiment: Induction of apoptosis in human MCF7 cells assessed as late apoptotic cells at 15 uM after 48 hrs by AnnexinV-FITC staining based flow cytometry (reference value: 7.6 +/- 5.9 %); type: functional
[11] = tested on: MCF7; experiment: Induction of apoptosis in human MCF7 cells assessed as necrotic cells at 15 uM after 48 hrs by AnnexinV-FITC staining based flow cytometry (reference value: 10.2 +/- 1.9 %); type: functional
[12] = Antiproliferative activity against human Ovarian cancer DC#83 cells assessed as cell survival at 20 uM after 72 hrs by MTT assay relative to control; type: functional; settings: read-out: Survival
[13] = Antiproliferative activity against human Ovarian cancer DC#110 cells assessed as cell survival at 20 uM after 72 hrs by MTT assay relative to control; type: functional; settings: read-out: Survival
[14] = tested on: MCF7; experiment: Inhibition of DNA methylation in human MCF7 cells assessed as melting temperature of RARbeta amplicon DNA by qPCR method (reference value: 77 degC); type: cell-based
[15] = tested on: MSTO-211H; experiment: Antiproliferative activity against human MSTO-211H cells after 48 to 72 hrs by MTT assay; type: functional, cell-based
[16] = tested on: MCF7; experiment: Antiproliferative activity against human MCF7 cells after 48 to 72 hrs by MTT assay; type: functional, cell-based
[17] = tested on: MCF7; experiment: Induction of apoptosis in human MCF7 cells assessed as early apoptotic cells at 15 uM after 72 hrs by AnnexinV-FITC staining based flow cytometry (reference value: 20.1 +/- 7.3 %); type: functional
[18] = target: T1, Histone-lysine N-methyltransferase EHMT2 (Homo sapiens); experiment: Inhibition of G9a in human MCF7 nuclear extracts assessed as reduction in H3K9 levels at 15 uM after 48 hrs; type: cell-based
[19] = Antiproliferative activity against human H460 cells after 48 to 72 hrs by MTT assay; type: functional, cell-based; settings: NCI-H460
[20] = Antiproliferative activity against human Ovarian cancer LA#110 cells assessed as cell survival at 20 uM after 72 hrs by MTT assay relative to control; type: functional; settings: read-out: Survival
[21] = tested on: MCF7; experiment: Inhibition of DNA methylation in human MCF7 cells assessed as decrease in 5-methylcytosine level by ELISA; type: cell-based
[22] = tested on: MCF7; experiment: Inhibition of DNA methylation in human MCF7 cells assessed as reduction in H3K9me3 levels at 15 uM after 48 hrs by Western blot analysis; type: cell-based
[23] = tested on: MCF7; experiment: Inhibition of DNA methylation in human MCF7 cells assessed as reduction in H3K9me3 levels at 0.5 to 1 uM after 48 hrs by Western blot analysis; type: cell-based
[24] = tested on: MCF7; experiment: Cell cycle arrest in human MCF7 cells assessed as accumulation at S phase at 15 uM after 24 to 72 hrs by flow cytometry relative to control; type: functional
[25] = tested on: MCF7; experiment: Inhibition of DNA methylation in human MCF7 cells assessed as decrease in methylation of RARbeta DNA by qPCR method; type: cell-based

CN1c2ccccc2C(=O)N2CCc3c([nH]c4ccccc34)[C@H]21
Activity [1]: 8.1% | inhibition [2]: 60% | viability at 15 µM [3]: 41.9% | inhibition [4]: inactive | viability at 15 µM [5]: 51.5% | Activity [6]: 33.2% | Activity [7]: 39.3% | viability at 20 µM [8]: 53.2% | Activity [9]: 11.9% | Activity [10]: 27.6% | Activity [11]: 9% | viability at 20 µM [12]: 65.5% | viability at 20 µM [13]: 43.1% | Tm [14]: 75.5 °C | pIC50 [15]: 6.27 | pIC50 [16]: 5.27 | Activity [17]: 16.8% | inhibition [18]: Active | pIC50 [19]: 6.59 | viability at 20 µM [20]: 26.8% | inhibition [21]: Active | inhibition [22]: 100%

Nc1nccc2c1ncn2[C@@H]1C=C(CO)[C@@H](O)[C@H]1O
Activity [1]: 5.9% | viability at 15 µM [3]: 52.6% | inhibition [4]: Active | viability at 15 µM [5]: 32.2% | Activity [6]: 24.1% | viability at 20 µM [8]: 42.5% | Activity [9]: 12.8% | Activity [10]: 16.1% | Activity [11]: 7.8% | viability at 20 µM [12]: 63.5% | viability at 20 µM [13]: 13.6% | Activity [17]: 17.4% | inhibition [23]: inactive | inhibition [18]: Active | viability at 20 µM [20]: 30.4%

CCCCN1C(=O)[C@@H]2Cc3c([nH]c4ccccc34)CN2C1=O
Activity [1]: 6.7% | inhibition [2]: inactive | viability at 15 µM [3]: 47.7% | viability at 15 µM [5]: 69% | Activity [24]: 10.8% | Activity [6]: 17.7% | viability at 20 µM [8]: 81.9% | Activity [9]: 13% | Activity [10]: 13.8% | Activity [11]: 4.2% | viability at 20 µM [12]: 93.3% | viability at 20 µM [13]: 80.8% | pIC50 [15]: < 4.70 | pIC50 [16]: 4.43 | Activity [17]: 27.9% | inhibition [18]: Active | pIC50 [19]: < 4.70 | viability at 20 µM [20]: 66.7% | inhibition [21]: Active | inhibition [25]: inactive | inhibition [22]: inactive
